Targets include PRKCG (PKC gamma) (Homo sapiens, UniProt P05129); PRKCD (PKC delta) (Homo sapiens, UniProt Q05655); SYK (Homo sapiens, UniProt P43405); PAK1 (Homo sapiens, UniProt Q13153); GRK5 (Homo sapiens, UniProt P34947); ROCK1 (Homo sapiens, UniProt Q13464); ROCK2 (Homo sapiens, UniProt O75116); RPS6KA1 (RSK1) (Homo sapiens, UniProt Q15418); CHEK2 (CHK2) (Homo sapiens, UniProt O96017); MELK (Homo sapiens, UniProt Q14680); MARK2 (Homo sapiens, UniProt Q7KZI7); PIM1 (Homo sapiens, UniProt P11309).

Assay in all cases: SelectScreen Z'LYTE kinase profiling
Holding throughout (type): biochemical
Details in all cases: ATP at apparent KM

For another experiment, the target named is T1, PDK1 Direct (Homo sapiens, UniProt O15530).
T1 sequence (O15530 1-556): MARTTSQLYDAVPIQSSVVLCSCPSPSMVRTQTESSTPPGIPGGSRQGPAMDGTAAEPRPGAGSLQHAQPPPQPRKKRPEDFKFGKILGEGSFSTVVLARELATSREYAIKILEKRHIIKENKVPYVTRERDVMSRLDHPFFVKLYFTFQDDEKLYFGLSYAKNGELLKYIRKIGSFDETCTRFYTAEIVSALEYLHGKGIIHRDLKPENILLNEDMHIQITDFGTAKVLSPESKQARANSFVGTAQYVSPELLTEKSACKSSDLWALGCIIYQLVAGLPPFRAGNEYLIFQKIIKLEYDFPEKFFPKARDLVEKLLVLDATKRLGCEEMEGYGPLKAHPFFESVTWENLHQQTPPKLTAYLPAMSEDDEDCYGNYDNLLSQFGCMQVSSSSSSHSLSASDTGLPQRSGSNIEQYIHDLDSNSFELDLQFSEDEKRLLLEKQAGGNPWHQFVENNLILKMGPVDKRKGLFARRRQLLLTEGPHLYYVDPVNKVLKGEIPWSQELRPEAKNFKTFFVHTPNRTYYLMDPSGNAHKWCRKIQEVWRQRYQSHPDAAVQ

For another experiment, the target named is T2, PRKX (Homo sapiens, UniProt P51817).
T2 sequence (P51817 1-358): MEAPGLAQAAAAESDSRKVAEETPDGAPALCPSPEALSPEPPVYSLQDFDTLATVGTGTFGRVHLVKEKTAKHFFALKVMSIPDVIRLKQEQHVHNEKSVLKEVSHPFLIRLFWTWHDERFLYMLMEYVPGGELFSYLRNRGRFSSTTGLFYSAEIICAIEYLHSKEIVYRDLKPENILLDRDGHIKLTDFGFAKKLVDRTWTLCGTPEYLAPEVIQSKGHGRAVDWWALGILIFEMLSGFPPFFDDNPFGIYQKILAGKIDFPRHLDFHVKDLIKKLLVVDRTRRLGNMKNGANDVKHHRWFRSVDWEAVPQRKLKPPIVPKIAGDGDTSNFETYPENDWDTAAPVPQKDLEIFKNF

The target of another experiment is T3, PRKCN (PKD3) (Homo sapiens, UniProt O94806).
T3 sequence (O94806 1-890): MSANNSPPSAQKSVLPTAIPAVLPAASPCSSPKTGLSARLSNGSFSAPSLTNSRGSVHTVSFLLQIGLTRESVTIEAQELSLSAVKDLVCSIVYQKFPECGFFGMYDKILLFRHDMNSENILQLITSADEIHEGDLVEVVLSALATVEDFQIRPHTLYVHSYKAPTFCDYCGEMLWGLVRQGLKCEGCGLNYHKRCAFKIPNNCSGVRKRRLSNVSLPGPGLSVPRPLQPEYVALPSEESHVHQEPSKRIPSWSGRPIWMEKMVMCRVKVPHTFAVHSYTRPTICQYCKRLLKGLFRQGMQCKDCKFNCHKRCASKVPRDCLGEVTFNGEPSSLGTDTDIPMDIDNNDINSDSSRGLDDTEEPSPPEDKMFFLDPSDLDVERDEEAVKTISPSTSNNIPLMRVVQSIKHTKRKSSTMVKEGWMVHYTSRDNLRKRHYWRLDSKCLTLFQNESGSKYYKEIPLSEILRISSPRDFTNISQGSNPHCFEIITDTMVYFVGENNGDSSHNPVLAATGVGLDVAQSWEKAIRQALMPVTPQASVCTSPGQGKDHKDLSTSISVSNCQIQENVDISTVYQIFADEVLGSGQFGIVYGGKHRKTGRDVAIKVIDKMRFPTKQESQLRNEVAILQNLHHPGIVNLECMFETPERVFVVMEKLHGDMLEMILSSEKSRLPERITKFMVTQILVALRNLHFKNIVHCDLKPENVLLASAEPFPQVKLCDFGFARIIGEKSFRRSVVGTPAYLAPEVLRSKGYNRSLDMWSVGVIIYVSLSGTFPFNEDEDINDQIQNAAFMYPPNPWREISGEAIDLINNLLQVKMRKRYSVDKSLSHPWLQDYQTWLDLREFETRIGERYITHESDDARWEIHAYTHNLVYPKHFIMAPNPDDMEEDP

This passage reports inhibition results from article PMC6430017, “Structural and chemical insights into the covalent-allosteric inhibition of the protein kinase Akt” (Chemical Science, 2019).

PAK1, sequence (Q13153 whole entry): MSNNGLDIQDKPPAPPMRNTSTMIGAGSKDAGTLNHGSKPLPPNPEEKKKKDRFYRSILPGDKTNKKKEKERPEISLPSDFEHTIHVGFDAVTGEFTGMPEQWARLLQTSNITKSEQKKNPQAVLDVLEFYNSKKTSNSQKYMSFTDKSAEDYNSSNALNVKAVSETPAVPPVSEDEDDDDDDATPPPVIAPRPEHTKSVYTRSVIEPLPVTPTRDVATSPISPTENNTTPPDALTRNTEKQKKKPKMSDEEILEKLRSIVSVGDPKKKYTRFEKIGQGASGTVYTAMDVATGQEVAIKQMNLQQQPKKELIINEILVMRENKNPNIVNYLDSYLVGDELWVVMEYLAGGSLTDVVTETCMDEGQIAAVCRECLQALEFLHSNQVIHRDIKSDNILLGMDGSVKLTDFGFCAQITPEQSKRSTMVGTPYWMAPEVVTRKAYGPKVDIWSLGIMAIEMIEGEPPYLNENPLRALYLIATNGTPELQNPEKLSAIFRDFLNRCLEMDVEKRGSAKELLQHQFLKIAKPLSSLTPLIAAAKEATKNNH
RPS6KA1 (RSK1), sequence (Q15418 whole entry): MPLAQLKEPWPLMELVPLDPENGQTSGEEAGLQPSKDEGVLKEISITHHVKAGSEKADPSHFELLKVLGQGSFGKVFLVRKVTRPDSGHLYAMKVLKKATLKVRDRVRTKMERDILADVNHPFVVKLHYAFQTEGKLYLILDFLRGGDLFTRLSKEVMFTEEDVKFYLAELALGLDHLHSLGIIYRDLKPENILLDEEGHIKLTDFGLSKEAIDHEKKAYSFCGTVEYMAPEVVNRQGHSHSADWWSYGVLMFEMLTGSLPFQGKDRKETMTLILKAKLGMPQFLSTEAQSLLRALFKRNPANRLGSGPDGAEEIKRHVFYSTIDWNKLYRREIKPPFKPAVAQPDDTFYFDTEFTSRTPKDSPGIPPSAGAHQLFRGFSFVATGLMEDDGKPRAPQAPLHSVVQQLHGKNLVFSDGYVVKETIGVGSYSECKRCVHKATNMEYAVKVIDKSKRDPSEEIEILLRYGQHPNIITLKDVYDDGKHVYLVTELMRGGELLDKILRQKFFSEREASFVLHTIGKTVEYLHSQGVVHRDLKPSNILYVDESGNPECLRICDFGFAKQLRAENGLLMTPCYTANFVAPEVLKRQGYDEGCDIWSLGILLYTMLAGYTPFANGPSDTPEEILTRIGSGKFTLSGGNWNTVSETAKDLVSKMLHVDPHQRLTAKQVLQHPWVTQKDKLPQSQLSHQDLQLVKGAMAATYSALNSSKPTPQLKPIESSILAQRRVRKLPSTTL
ROCK2, sequence (O75116 whole entry): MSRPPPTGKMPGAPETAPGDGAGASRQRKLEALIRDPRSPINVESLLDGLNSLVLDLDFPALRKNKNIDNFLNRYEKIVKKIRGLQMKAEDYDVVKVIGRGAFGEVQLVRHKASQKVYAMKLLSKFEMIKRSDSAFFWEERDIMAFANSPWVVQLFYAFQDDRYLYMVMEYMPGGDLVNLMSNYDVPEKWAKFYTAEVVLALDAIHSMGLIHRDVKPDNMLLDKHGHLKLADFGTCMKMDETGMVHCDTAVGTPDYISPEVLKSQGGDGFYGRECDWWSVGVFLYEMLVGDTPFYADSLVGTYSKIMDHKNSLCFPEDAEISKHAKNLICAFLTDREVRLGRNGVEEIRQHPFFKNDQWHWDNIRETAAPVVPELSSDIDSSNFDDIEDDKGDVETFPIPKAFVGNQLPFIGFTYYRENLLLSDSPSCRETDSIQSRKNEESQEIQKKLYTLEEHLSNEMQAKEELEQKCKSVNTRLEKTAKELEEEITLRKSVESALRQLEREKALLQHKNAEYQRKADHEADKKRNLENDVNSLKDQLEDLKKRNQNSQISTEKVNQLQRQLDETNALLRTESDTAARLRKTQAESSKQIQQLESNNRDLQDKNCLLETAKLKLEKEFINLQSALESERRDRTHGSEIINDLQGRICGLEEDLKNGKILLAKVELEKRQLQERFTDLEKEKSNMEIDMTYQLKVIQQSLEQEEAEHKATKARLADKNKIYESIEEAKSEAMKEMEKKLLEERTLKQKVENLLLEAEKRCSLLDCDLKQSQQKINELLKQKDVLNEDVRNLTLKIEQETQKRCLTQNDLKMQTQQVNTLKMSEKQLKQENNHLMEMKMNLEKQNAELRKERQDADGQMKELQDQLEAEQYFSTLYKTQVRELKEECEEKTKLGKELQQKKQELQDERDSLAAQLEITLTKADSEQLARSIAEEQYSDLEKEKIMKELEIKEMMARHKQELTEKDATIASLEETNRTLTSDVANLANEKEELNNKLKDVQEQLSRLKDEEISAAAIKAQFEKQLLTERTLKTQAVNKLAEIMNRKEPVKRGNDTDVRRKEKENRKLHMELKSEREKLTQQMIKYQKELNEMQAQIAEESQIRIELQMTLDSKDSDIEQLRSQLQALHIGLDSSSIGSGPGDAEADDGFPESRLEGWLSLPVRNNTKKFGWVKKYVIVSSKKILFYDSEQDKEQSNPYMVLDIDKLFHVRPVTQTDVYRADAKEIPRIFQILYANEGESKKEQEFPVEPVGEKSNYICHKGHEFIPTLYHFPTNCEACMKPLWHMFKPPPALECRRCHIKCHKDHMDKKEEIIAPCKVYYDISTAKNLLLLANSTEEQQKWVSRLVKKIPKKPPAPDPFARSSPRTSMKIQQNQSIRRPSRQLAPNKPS
CHEK2 (CHK2), sequence (O96017 whole entry): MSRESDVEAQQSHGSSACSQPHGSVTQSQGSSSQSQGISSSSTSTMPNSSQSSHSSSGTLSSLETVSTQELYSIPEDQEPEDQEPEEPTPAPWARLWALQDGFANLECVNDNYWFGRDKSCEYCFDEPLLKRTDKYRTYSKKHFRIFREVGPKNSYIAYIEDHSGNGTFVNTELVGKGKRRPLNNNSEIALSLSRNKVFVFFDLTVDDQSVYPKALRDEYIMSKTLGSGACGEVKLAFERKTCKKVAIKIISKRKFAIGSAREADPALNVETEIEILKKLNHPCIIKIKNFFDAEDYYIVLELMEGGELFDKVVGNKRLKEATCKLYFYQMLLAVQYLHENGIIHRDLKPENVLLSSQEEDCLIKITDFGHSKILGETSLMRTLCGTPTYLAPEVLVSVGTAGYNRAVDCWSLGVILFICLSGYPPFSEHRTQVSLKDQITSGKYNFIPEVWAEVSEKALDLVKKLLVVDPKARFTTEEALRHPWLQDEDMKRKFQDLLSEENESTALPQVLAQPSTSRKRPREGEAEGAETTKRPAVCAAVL
PIM1, sequence (P11309 whole entry): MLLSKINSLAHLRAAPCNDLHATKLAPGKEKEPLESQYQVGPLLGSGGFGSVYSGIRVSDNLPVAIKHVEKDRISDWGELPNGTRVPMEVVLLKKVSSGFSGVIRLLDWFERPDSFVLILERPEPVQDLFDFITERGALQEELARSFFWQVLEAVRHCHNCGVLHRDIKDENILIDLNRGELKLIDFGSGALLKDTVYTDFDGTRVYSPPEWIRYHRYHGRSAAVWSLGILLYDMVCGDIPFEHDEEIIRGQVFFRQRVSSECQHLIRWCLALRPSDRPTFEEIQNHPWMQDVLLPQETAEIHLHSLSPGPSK
GRK5, sequence (P34947 whole entry): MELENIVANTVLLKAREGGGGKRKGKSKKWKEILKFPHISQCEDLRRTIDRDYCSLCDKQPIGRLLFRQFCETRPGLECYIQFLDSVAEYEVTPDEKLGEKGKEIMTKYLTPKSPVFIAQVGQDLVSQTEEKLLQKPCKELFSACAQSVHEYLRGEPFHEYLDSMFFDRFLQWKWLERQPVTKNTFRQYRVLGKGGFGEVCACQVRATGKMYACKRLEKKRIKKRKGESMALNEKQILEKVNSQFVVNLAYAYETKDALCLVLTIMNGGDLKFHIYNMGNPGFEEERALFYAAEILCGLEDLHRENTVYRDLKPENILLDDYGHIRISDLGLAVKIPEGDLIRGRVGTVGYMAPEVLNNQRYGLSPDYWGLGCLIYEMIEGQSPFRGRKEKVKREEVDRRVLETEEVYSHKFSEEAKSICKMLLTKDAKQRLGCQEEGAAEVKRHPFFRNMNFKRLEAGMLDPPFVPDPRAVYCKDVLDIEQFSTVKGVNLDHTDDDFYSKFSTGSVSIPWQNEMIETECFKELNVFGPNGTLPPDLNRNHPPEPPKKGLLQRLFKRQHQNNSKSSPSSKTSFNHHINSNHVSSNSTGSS
Description for CHEK2 (CHK2): (§1) protein kinases at a compound concentration of 1 µM. Measurements were performed in duplicates
(§2) and at the particular apparent ATP KM of each individual kinase employing the activity based Z’LYTE®
(§3) kinase assay of the SelectScreen® Kinase Profiling Services (ThermoFisher Scientific).
(§4) kinases at a compound concentration of 1 µM. Measurements were performed in duplicates and at
(§5) the particular apparent ATP KM of each individual kinase employing the activity based Z’LYTE® kinase
(§6) assay of the SelectScreen® Kinase Profiling Services (ThermoFisher Scientific).
Description for GRK5: as §1, §2, §3, §4, §5, §6
Description for MARK2: as §1, §2, §3, §4, §5, §6
Description for MELK: as §1, §2, §3, §4, §5, §6
Description for PAK1: as §1, §2, §3, §4, §5, §6
Description for PDK1 Direct: as §1, §2, §3, §4, §5, §6
Description for PIM1: as §1, §2, §3, §4, §5, §6
Description for PRKCD (PKC delta): as §1, §2, §3, §4, §5, §6
Description for PRKCG (PKC gamma): as §1, §2, §3, §4, §5, §6
Description for PRKCN (PKD3): as §1, §2, §3, §4, §5, §6
Description for PRKX: as §1, §2, §3, §4, §5, §6
Description for ROCK1: as §1, §2, §3, §4, §5, §6
Description for ROCK2: as §1, §2, §3, §4, §5, §6
Description for RPS6KA1 (RSK1): as §1, §2, §3, §4, §5, §6
Description for SYK: as §1, §2, §3, §4, §5, §6

With `C=CC(=O)Nc1ccc2c(c1)n(C1CCN(Cc3ccc(-c4nc5cc[nH]c(=O)c5cc4-c4ccccc4)cc3)CC1)c(=O)n2C` [24b], the inhibition at 1 µM on PDK1 Direct was 8%; at PRKCG (PKC gamma) it was -3%; at PRKX, -1%; at PRKCD (PKC delta), 0%; at SYK, 4%; on PAK1 it was 12%. In addition, the inhibition at 1 µM is -10% on GRK5; 16% at ROCK1; 9% at ROCK2; 14% on RPS6KA1 (RSK1); 10% at PRKCN (PKD3); -13% at CHEK2 (CHK2). The figures for the inhibition at 1 µM at MELK, at MARK2 and at PIM1 were 48%, 4% and -21%, respectively.
For the compound `C=CC(=O)Nc1cccc(C(=O)NC2CCN(Cc3ccc(-c4nc5cc[nH]c(=O)c5cc4-c4ccccc4)cc3)CC2)c1` [30b], the inhibition at 1 µM on PDK1 Direct was 1%; on PRKCG (PKC gamma), 0%; at PRKX, -6%; at PRKCD (PKC delta), 9%; on SYK, 15%; on PAK1 it was 4%. The inhibition at 1 µM is -1% on GRK5; 34% on ROCK1; 21% on ROCK2; 27% on RPS6KA1 (RSK1); 14% on PRKCN (PKD3); -12% at CHEK2 (CHK2). For the same compound, the inhibition at 1 µM at MELK was 52%; on MARK2, 4%; at PIM1, -15%.
Take `C=CC(=O)Nc1cc(NC(=O)NC2CCN(Cc3ccc(-c4nc5cc[nH]c(=O)c5cc4-c4ccccc4)cc3)CC2)ccc1Cl` [compound 27]: the inhibition at 1 µM was 3% at PDK1 Direct; -6% on PRKCG (PKC gamma); 3% on PRKX; 6% at PRKCD (PKC delta); 5% at SYK; -2% on PAK1. Also, the inhibition at 1 µM at GRK5 was -2%; on ROCK1, 54%; on ROCK2 it was 31%; at RPS6KA1 (RSK1) it was 22%; at PRKCN (PKD3), 16%; on CHEK2 (CHK2), 1%. Also, the inhibition at 1 µM on MELK was 83%; at MARK2, 6%; on PIM1, -18%.

The term inhibition denotes the drop in the measured response relative to a control, in per cent.
